According to patent EP1903056A2, “HLA-A1, -A2 -A3, -A24, -B7, and -B44 tumor associated antigen peptides and compositions” (priority 2002, dated 2004):

Assays:
[1] = target: B*3501 (Homo sapiens, UniProt P01889, A329T/A93T/A95T/C349S/D201E/D98Y/E176V/E187L/E204Q/E69T/I218V/K202T/L119I/Q94N/R155S/R180L/S121R/S35A/S48A/T118I/V127L/V306I/V36M/Y140S/Y91F); assay: Class I peptide-binding assay, B*3501
[2] = target: B*5401 (Homo sapiens, UniProt P01889, A329T/C349S/D138N/D201E/E176V/E187T/E204Q/E69G/I76V/K202T/L119W/R155S/R180L/S121T/S35A/S48A/V127L/V306I/V36M/Y140L); assay: Class I peptide-binding assay, B*5401; conditions: Table 17a
[3] = test system: melanoma patients; conditions: melanoma patients vaccinated with peptide-pulsed DC or the peptide alone; cited from earlier work
[4] = test system: cervical cancer patients; conditions: cited from earlier work
[5] = test system: cervical cancer patients; conditions: two weeks after vaccination; PBMC stimulated in vitro with 5 µg/ml PADRE peptide; proliferation index > 5; cited from earlier work
[6] = target: HLA-A*0101 (Homo sapiens, UniProt P04439, A114D/A174V/A182V/D101N/D185E/E176A/E190D/L180R/Q94H/R68K/S129P/T187R/V100A/V91M/W191G); assay: Class I peptide-binding assay, A*0101; conditions: Table 18a, CEA-derived A1 binders
[7] = target: HLA-A*2402 (Homo sapiens, UniProt P04439, D101N/D140Y/D185E/E176V/E190D/F33S/G103R/G107R/I119L/I121M/I306V/K335N/L105A/L180Q/L300P/N151K/N90K/Q86E/Q94H/R106L/R138H/R89G/T104I/T345S/V100E/W191G/Y123F); assay: Class I peptide-binding assay, A*2402; conditions: Table 19a, CEA-derived A24 binders

Q: For `CC[C@H](C)[C@H](N)C(=O)N1CCC[C@H]1C(=O)N[C@@H](Cc1c[nH]c2ccccc12)C(=O)N[C@@H](CCC(N)=O)C(=O)N[C@@H](CCCNC(=N)N)C(=O)N[C@@H](CC(C)C)C(=O)N[C@@H](CC(C)C)C(=O)N[C@@H](CC(C)C)C(=O)N[C@H](C(=O)N[C@H](C(=O)O)[C@@H](C)CC)[C@@H](C)O` [CEA.13I10], which IC50 ([1]; Table 17a) is on record?
A: The IC50 was 10000 nM.

Q: For `CC[C@H](C)[C@H](N)C(=O)N1CCC[C@H]1C(=O)N[C@@H](Cc1c[nH]c2ccccc12)C(=O)N[C@@H](CCC(N)=O)C(=O)N[C@@H](CCCNC(=N)N)C(=O)N[C@@H](CC(C)C)C(=O)N[C@@H](CC(C)C)C(=O)N[C@@H](CC(C)C)C(=O)N[C@H](C(=O)N[C@@H](C)C(=O)O)[C@@H](C)O` [CEA.13], which IC50 ([1]; Table 17a) is on record?
A: The IC50 was 10000 nM.

Q: And the IC50 [2]?
A: The IC50 was 32 nM.

Q: Which IC50 ([1]; Table 17a) does the source give for `CC[C@H](C)[C@H](NC(=O)[C@H](CO)NC(=O)[C@H](Cc1ccc(O)cc1)NC(=O)CNC(=O)[C@H](Cc1ccccc1)NC(=O)[C@H](CC(C)C)NC(=O)[C@H](Cc1c[nH]cn1)NC(=O)[C@H](CCC(N)=O)NC(=O)[C@@H]1CCCN1C(=O)[C@@H](N)CC(C)C)C(=O)O` [CEA.58I10] here?
A: The IC50 was 10000 nM.

Q: Which IC50 ([1]; Table 17b) does the source give for `CC[C@H](C)[C@H](NC(=O)[C@@H]1CCCN1C(=O)[C@H](CC(C)C)NC(=O)[C@@H]1CCCN1C(=O)CNC(=O)[C@H](CCC(=O)O)NC(=O)[C@H](CCCNC(=N)N)NC(=O)[C@@H]1CCCN1C(=O)[C@H](CO)NC(=O)[C@@H]1CCCN1C(=O)[C@@H]1CCCN1)C(=O)O` [Her2/neu.1149.I11] here?
A: Its IC50 is 1000 nM.

Q: For `CC[C@H](C)[C@H](NC(=O)[C@@H]1CCCN1C(=O)[C@H](CC(=O)O)NC(=O)[C@@H](NC(=O)[C@@H](N)CCC(=O)O)C(C)C)C(=O)NCC(=O)N[C@@H](Cc1c[nH]cn1)C(=O)N[C@@H](CC(C)C)C(=O)N[C@@H](Cc1ccc(O)cc1)C(=O)O` [MAGE3.168], which “tumor regression in vaccinated patients” value [3] is on record?
A: The value was “tumor regression was observed”.

Q: What does the source list for `CC(C)C[C@H](NC(=O)[C@@H](NC(=O)[C@H](Cc1c[nH]c2ccccc12)NC(=O)[C@H](C)NC(=O)[C@H](C)NC(=O)[C@@H](NC(=O)[C@H](CC1CCCCC1)NC(=O)[C@H](CCCCN)NC(=O)[C@@H](C)N)C(C)C)[C@@H](C)O)C(=O)N[C@@H](CCCCN)C(=O)N[C@@H](C)C(=O)N[C@@H](C)C(=O)N[C@H](C)C(N)=O` [PADRE, aKXVAAWTLKAAa-NH2]?
A: responding patients ([4]; 95% interval 10-65%): 33%; safety in trial ([4]; patients with recurrent or residual cervical carcinoma): favorable safety profile

Q: Which “patients displaying PADRE-specific proliferation” value [5] does the source give for `CC(C)C[C@H](NC(=O)[C@@H](NC(=O)[C@H](Cc1c[nH]c2ccccc12)NC(=O)[C@H](C)NC(=O)[C@H](C)NC(=O)[C@@H](NC(=O)[C@H](CC1CCCCC1)NC(=O)[C@H](CCCCN)NC(=O)[C@@H](C)N)C(C)C)[C@@H](C)O)C(=O)N[C@@H](CCCCN)C(=O)N[C@@H](C)C(=O)N[C@@H](C)C(=O)N[C@H](C)C(N)=O` [aKXVAAWTLKAAa-NH2] here?
A: Its value is 4/12.

Q: With `CC[C@H](C)[C@H](N)C(=O)N[C@H](C(=O)N[C@@H](CCC(=O)O)C(=O)N[C@@H](CCCCN)C(=O)N[C@@H](CC(N)=O)C(=O)N[C@@H](CO)C(=O)NCC(=O)N[C@@H](CC(C)C)C(=O)N[C@@H](Cc1ccc(O)cc1)C(=O)O)[C@@H](C)O` [compound 179] as the compound, how does the IC50 [6] read?
A: The IC50 was 641 nM.

Q: Which IC50 [7] does the source give for `CC(C)C[C@H](NC(=O)[C@H](CO)NC(=O)[C@H](CCC(N)=O)NC(=O)CNC(=O)[C@H](CC(N)=O)NC(=O)[C@@H](NC(=O)[C@H](Cc1c[nH]c2ccccc12)NC(=O)[C@H](Cc1c[nH]c2ccccc12)NC(=O)[C@@H](N)CC(C)C)C(C)C)C(=O)O` [compound 283] here?
A: The IC50 was 1460 nM.
